Test results taken from patent US8604061B2, “2-aminooxazolines as TAAR1 ligands” (Hoffmann-La Roche Inc., priority 2007, dated 2013).

Molecular target: TAAR1 (Mus musculus, UniProt Q923Y8)
Assay: TAAR1 radioligand binding, membranes of stably transfected HEK293 cells (mouse)
Conditions: not given
Procedure, shortened: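 Competition binding on membranes from HEK293 cells stably expressing the TAAR1 species ortholog, in HEPES-NaOH pH 7.0 with 10 mM MgCl2 and 2 mM CaCl2, 30 min at 4° C with [3H]-rac-2-(1,2,3,4-tetrahydro-1-naphthyl)-2-imidazoline. Competitors 10 pM–30 μM, duplicates; non-specific binding with 10 μM unlabelled ligand; filtration and scintillation counting.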

SMILES | Ki [µM]
NC1=NC(c2ccc(Cl)cc2C(F)(F)F)CO1 (racemic) [Example 226, (RS)-4-(4-Chloro-2-trifluoromethyl-phenyl)-4,5-dihydro-oxazol-2-ylamine] | 0.0054
NC1=NC(c2cccc(F)c2C(F)(F)F)CO1 (racemic) [Example 371, (RS)-4-(3-Fluoro-2-trifluoromethyl-phenyl)-4,5-dihydro-oxazol-2-ylamine] | 0.0096
NC1=NC(c2ccc(Cl)cc2Cl)CO1 (racemic) [Example 235, (RS)-4-(2,4-Dichloro-phenyl)-4,5-dihydro-oxazol-2-ylamine] | 0.001
NC1=NC(c2ccccc2C(F)(F)F)CO1 (racemic) [Example 6, (RS)-4-(2-Trifluoromethyl-phenyl)-4,5-dihydro-oxazol-2-ylamine] | 0.0038
NC1=NC(c2cc(Cl)ccc2C(F)(F)F)CO1 (racemic) [Example 225, (RS)-4-(5-Chloro-2-trifluoromethyl-phenyl)-4,5-dihydro-oxazol-2-ylamine] | 0.0062
Cc1c(F)cccc1C1COC(N)=N1 (racemic) [Example 365, (RS)-4-(3-Fluoro-2-methyl-phenyl)-4,5-dihydro-oxazol-2-ylamine] | 0.0029
Cc1ccc(Cl)cc1C1COC(N)=N1 (racemic) [Example 272, (RS)-4-(5-Chloro-2-methyl-phenyl)-4,5-dihydro-oxazol-2-ylamine] | 0.0013
NC1=NC(c2cc(Cl)ccc2Cl)CO1 (racemic) [Example 260, (RS)-4-(2,5-Dichloro-phenyl)-4,5-dihydro-oxazol-2-ylamine] | 0.0013
NC1=NC(c2cccc(Br)c2)CO1 (racemic) [Example 186, (RS)-4-(3-Bromo-phenyl)-4,5-dihydro-oxazol-2-ylamine] | 0.0045
NC1=NC(c2ccc(Br)cc2)CO1 (racemic) [Example 20, (RS)-4-(4-Bromo-phenyl)-4,5-dihydro-oxazol-2-ylamine] | 0.0009
NC1=NC(c2cc(F)ccc2C(F)(F)F)CO1 (racemic) [Example 249, (RS)-4-(5-Fluoro-2-trifluoromethyl-phenyl)-4,5-dihydro-oxazol-2-ylamine] | 0.0075
NC1=NC(c2ccc(Br)c(Cl)c2)CO1 (racemic) [Example 326, (RS)-4-(4-Bromo-3-chloro-phenyl)-4,5-dihydro-oxazol-2-ylamine] | 0.001
NC1=N[C@@H](CCc2ccc(F)cc2Cl)CO1 [Example 139, (S)-4-[2-(2-Chloro-4-fluoro-phenyl)-ethyl]-4,5-dihydro-oxazol-2-ylamine] | 0.0019
NC1=NC(c2ccc3ccccc3c2)CO1 (racemic) [Example 33, (RS)-4-Naphthalen-2-yl-4,5-dihydro-oxazol-2-ylamine] | 0.0007

Same assay, conditions: mouse/rat; cell not marked 'rat'; radioligand [3H]-rac-2-(1,2,3,4-tetrahydro-1-naphthyl)-2-imidazoline, 4° C.; read-out: Ki (μM) mouse/rat

SMILES | Ki [µM]
CC1(c2cc(F)c(F)cc2F)COC(N)=N1 (racemic) [Example 251, (RS)-4-Methyl-4-(2,4,5-trifluoro-phenyl)-4,5-dihydro-oxazol-2-ylamine] | 0.0086
C[C@]1(CCc2ccccc2)COC(N)=N1 [Example 81 (S), (S)-4-Methyl-4-phenethyl-4,5-dihydro-oxazol-2-ylamine] | 0.0064
NC1=N[C@@H](CCc2cc(Cl)ccc2Cl)CO1 [Example 333, (S)-4-[2-(2,5-Dichloro-phenyl)-ethyl]-4,5-dihydro-oxazol-2-ylamine] | 0.0021
CCC(C[C@H]1COC(N)=N1)c1cccc(C(F)(F)F)c1 (stereo partly drawn) [Example 194, (S)-4-[2-(3-Trifluoromethyl-phenyl)-butyl]-4,5-dihydro-oxazol-2-ylamine] | 0.0073
NC1=N[C@@H](c2ccc(Cl)cc2Cl)CO1 [Example 296, (+)-(S)-4-(2,4-Dichloro-phenyl)-4,5-dihydro-oxazol-2-ylamine] | 0.0004
COc1ccc([C@H]2COC(N)=N2)cc1Cl [Example 131, (S)-4-(3-Chloro-4-methoxy-phenyl)-4,5-dihydro-oxazol-2-ylamine] | 0.0024
CC(C[C@H]1COC(N)=N1)c1cccc(C(F)(F)F)c1 (stereo partly drawn) [Example 193, (S)-4-[2-(3-Trifluoromethyl-phenyl)-propyl]-4,5-dihydro-oxazol-2-ylamine] | 0.0043
CC(C[C@H]1COC(N)=N1)c1ccccc1F (stereo partly drawn) [Example 217, (S)-4-[2-(2-Fluoro-phenyl)-propyl]-4,5-dihydro-oxazol-2-ylamine] | 0.0015
C[C@]1(CCc2cccc(Cl)c2)COC(N)=N1 [Example 246, (S)-4-[2-(3-Chloro-phenyl)-ethyl]-4-methyl-4,5-dihydro-oxazol-2-ylamine] | 0.0055
NC1=N[C@@H](c2cc(Cl)cc(Cl)c2)CO1 [Example 201, (+)-(S)-4-(3,5-Dichloro-phenyl)-4,5-dihydro-oxazol-2-ylamine] | 0.0002
Cc1ccccc1CC[C@H]1COC(N)=N1 [Example 114, (S)-4-(2-o-Tolyl-ethyl)-4,5-dihydro-oxazol-2-ylamine] | 0.0021
NC1=N[C@@H](COc2ccc(F)cc2F)CO1 [Example 353, (S)-4-(2,4-Difluoro-phenoxymethyl)-4,5-dihydro-oxazol-2-ylamine] | 0.0014
NC1=N[C@@H](Cc2cccc3ccccc23)CO1 [Example 48, (S)-4-Naphthalen-1-ylmethyl-4,5-dihydro-oxazol-2-ylamine] | 0.0002
CCC(C[C@H]1COC(N)=N1)c1ccc(F)c(Cl)c1 (stereo partly drawn) [Example 356, (S)-4-[2-(3-Chloro-4-fluoro-phenyl)-butyl]-4,5-dihydro-oxazol-2-ylamine] | 0.0043
C[C@@]1(c2ccccc2F)COC(N)=N1 [Example 196, (R)-4-(2-Fluoro-phenyl)-4-methyl-4,5-dihydro-oxazol-2-ylamine] | 0.0066
NC1=N[C@@H](c2cc(Cl)ccc2Cl)CO1 [Example 298, (+)-(S)-4-(2,5-Dichloro-phenyl)-4,5-dihydro-oxazol-2-ylamine] | 0.0004
Cc1cc(CC[C@H]2COC(N)=N2)ccc1F [Example 140, (S)-4-[2-(4-Fluoro-3-methyl-phenyl)-ethyl]-4,5-dihydro-oxazol-2-ylamine] | 0.001
NC1=N[C@@H](c2ccc(Br)c(Cl)c2)CO1 [Example 330, (+)-(S)-4-(4-Bromo-3-chloro-phenyl)-4,5-dihydro-oxazol-2-ylamine] | 0.0008

SMILES | Ki [µM]
C[C@]1(c2cc(Cl)ccc2F)COC(N)=N1 [Example 270, (S)-4-(5-Chloro-2-fluoro-phenyl)-4-methyl-4,5-dihydro-oxazol-2-ylamine] | 0.0016
NC1=N[C@H](c2cc(Cl)c(Cl)cc2C(F)(F)F)CO1 [Example 243, (−)-(R)-4-(4,5-Dichloro-2-trifluoromethyl-phenyl)-4,5-dihydro-oxazol-2-ylamine] | 0.0094
CC[C@@H](C[C@H]1COC(N)=N1)c1ccccc1 [Example 292, (S)-4-((S)-2-Phenyl-butyl)-4,5-dihydro-oxazol-2-ylamine] | 0.0035
CCC(C[C@H]1COC(N)=N1)c1cccc(Cl)c1F (stereo partly drawn) [Example 355, (S)-4-[2-(3-Chloro-2-fluoro-phenyl)-butyl]-4,5-dihydro-oxazol-2-ylamine] | 0.0043
NC1=N[C@H](c2ccc(Cl)cc2Cl)CO1 [Example 295, (−)-(R)-4-(2,4-Dichloro-phenyl)-4,5-dihydro-oxazol-2-ylamine] | 0.0082
NC1=N[C@@H](c2cc(F)c(F)c(F)c2)CO1 [Example 170, (S)-4-(3,4,5-Trifluoro-phenyl)-4,5-dihydro-oxazol-2-ylamine] | 0.0011
NC1=N[C@@H](CCc2cc(F)cc(F)c2)CO1 [Example 113, (S)-4-[2-(3,5-Difluoro-phenyl)-ethyl]-4,5-dihydro-oxazol-2-ylamine] | 0.0016
C[C@]1(c2ccc(C(F)(F)F)cc2F)COC(N)=N1 [Example 215, (S)-4-(2-Fluoro-4-trifluoromethyl-phenyl)-4-methyl-4,5-dihydro-oxazol-2-ylamine] | 0.0024
CC1(CCc2ccccc2)COC(N)=N1 (racemic) [Example 78, (RS)-4-Methyl-4-phenethyl-4,5-dihydro-oxazol-2-ylamine] | 0.0064
C[C@]1(c2ccc(F)c(Cl)c2)COC(N)=N1 [Example 277, (S)-4-(3-chloro-4-fluoro-phenyl)-4-methyl-4,5-dihydro-oxazol-2-ylamine] | 0.0016
CCC(C[C@H]1COC(N)=N1)c1cc(F)cc(F)c1 (stereo partly drawn) [Example 203, (S)-4-[2-(3,5-Difluoro-phenyl)-butyl]-4,5-dihydro-oxazol-2-ylamine] | 0.0039
NC1=N[C@@H](CCc2cccc(C(F)(F)F)n2)CO1 [Example 212, (S)-4-[2-(6-Trifluoromethyl-pyridin-2-yl)-ethyl]-4,5-dihydro-oxazol-2-ylamine] | 0.0068
NC1=N[C@@H](CCc2ccc(F)cc2)CO1 [Example 85, (S)-4-[2-(4-Fluoro-phenyl)-ethyl]-4,5-dihydro-oxazol-2-ylamine] | 0.0011
NC1=N[C@@H](CCc2c(F)cccc2Cl)CO1 [Example 303, (S)-4-[2-(2-Chloro-6-fluoro-phenyl)-ethyl]-4,5-dihydro-oxazol-2-ylamine] | 0.0011
NC1=N[C@@H](CCc2cccc(Cl)c2Cl)CO1 [Example 149, (S)-4-[2-(2,3-Dichloro-phenyl)-ethyl]-4,5-dihydro-oxazol-2-ylamine] | 0.0019
NC1=N[C@@H](c2ccc(Cl)c(Cl)c2)CO1 [Example 91, (S)-4-(3,4-Dichloro-phenyl)-4,5-dihydro-oxazol-2-ylamine] | 0.0006
CC[C@]1(c2ccc(Cl)c(Cl)c2)COC(N)=N1 [Example 328, (S)-4-(3,4-Dichloro-phenyl)-4-ethyl-4,5-dihydro-oxazol-2-ylamine] | 0.0052
NC1=N[C@@H](CCc2ccc(F)c(OC(F)(F)F)c2)CO1 [Example 146, (S)-4-[2-(4-Fluoro-3-trifluoromethoxy-phenyl)-ethyl]-4,5-dihydro-oxazol-2-ylamine] | 0.0041
